What was measured:
[1] = biological target: T1, human orexin-1 receptor (hOX1R) (Homo sapiens, UniProt O43613); assay: FLIPR Ca2+ Flux Assay, hOX1R; assay type: cell-based; details: CHO cells expressing hOX1R; agonist Ala-6,12 human orexin-A 70 pM
T1 construct: expressed in transfected cells; host or cells: Chinese hamster ovary (CHO) cells
T1 sequence (O43613 1-425): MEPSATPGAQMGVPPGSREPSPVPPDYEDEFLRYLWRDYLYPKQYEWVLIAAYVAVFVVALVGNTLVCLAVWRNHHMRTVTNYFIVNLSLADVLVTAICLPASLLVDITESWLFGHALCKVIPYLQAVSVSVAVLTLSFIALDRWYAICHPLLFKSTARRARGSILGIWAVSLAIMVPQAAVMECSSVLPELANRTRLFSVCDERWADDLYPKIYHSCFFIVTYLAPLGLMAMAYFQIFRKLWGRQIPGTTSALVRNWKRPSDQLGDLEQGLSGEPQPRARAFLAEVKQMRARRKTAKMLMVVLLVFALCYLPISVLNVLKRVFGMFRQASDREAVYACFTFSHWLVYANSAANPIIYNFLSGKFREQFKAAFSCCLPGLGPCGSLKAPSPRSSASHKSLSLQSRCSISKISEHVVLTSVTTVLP
Excerpt: (§1) The utility of the compounds in accordance with the present invention as orexin receptor OX1R and/or OX2R antagonists may be readily determined without undue experimentation by methodology well known in the art, including the “FLIPR Ca^2+ Flux Assay” (Okumura et al., Biochem. Biophys. Res. Comm. 2001, 280:976-981). Briefly, for intracellular calcium measurements, Chinese hamster ovary (CHO) cells expressing the orexin-1 receptor (e.g., rat or human) or the orexin-2 receptor (e.g., rat or human), are grown in Iscove's modified DMEM containing 2 mM L-glutamine, […], 1% hypoxanthine-thymidine supplement, 100 U/ml penicillin, 100 μg/ml streptomycin and 10% heat-inactivated fetal calf serum (FCS). The cells are seeded at approximately 20,000 cells per well into 384-well clear bottom sterile plates coated with poly-D-lysine. The seeded plates are incubated overnight at 37° C. and 5% CO2. Human ala-6,12 orexin-A can be used as the agonist and prepared as a 1 mM stock solution in 1% bovine serum albumin (BSA) and diluted in assay buffer (HBSS containing 20 mM HEPES, 0.1% BSA and 2.5 mM probenecid, pH7.4) for use in the assay at a final concentration of 70 pM. Test compounds are prepared as 10 mM stock solution in DMSO, then diluted in 384-well plates, first in DMSO, then in assay buffer. On the day of the assay, cells are washed 3 times with 100 μl assay buffer and then incubated for 60 minutes (37° C., 5% CO2) in 60 μl assay buffer containing 1 μM Fluo-4AM ester, 0.02% pluronic acid, and 1% BSA. The dye loading solution is then aspirated and cells are washed 3 times with 100 μl assay buffer. 30 μl of that same buffer is left in each well. Within the Fluorescent Imaging Plate Reader (FLIPR, Molecular Devices), test compounds are added to the plate in a volume of 25 μl, incubated for 5 minutes, and then 25 μl of agonist is added. Fluorescence is measured for each well at 1 second intervals for 5 minutes, and the height of each fluorescence peak is compared to the height of the fluorescence peak induced by 70 pM of agonist ala-6,12 orexin-A with buffer in place of test compound. IC50 value for the test compound is determined to be the concentration of compound needed to inhibit 50% of the agonist response. Alternatively, compound potency can be assessed using a radioligand binding assay (described in Bergman et. al. Bioorg. Med. Chem. Lett. 2008, 18:1425-1430) in which the inhibition constant (Ki) is determined in membranes prepared from CHO cells expressing either the OX1 or OX2 receptor. The intrinsic orexin receptor antagonist activity of a compound of the present invention may be determined by these assays.
(§2) Chinese hamster ovary (CHO) cells expressing the human orexin-1 receptor (hOX1R) or the human orexin-2 receptor (hOX2R) were grown in Iscove's modified DMEM containing 2 mM L-glutamine, […], 1% hypoxanthine-thymidine supplement, 100 U/ml penicillin, 100 μg/ml streptomycin and 10% heat-inactivated fetal calf serum (FCS). The cells were seeded at −20,000 cells/well into Becton-Dickinson black 384-well clear bottom sterile plates coated with poly-D-lysine. All reagents were from GIBCO-Invitrogen Corp. The seeded plates were incubated overnight at 37° C. and 5% CO2. Ala-6,12 human orexin-A, used as the agonist, was prepared as a 1 mM stock solution in 1% bovine serum albumin (BSA) and diluted in assay buffer (HBSS containing 20 mM HEPES, 0.1% BSA and 2.5 mM probenecid, pH7.4) for use in the assay at a final concentration of 70 pM. Test compounds were prepared as 10 mM stock solution in DMSO, then diluted in 384-well plates, first in DMSO, then assay buffer.
(§3) On the day of the assay, cells were washed 3× with 100 μl assay buffer and then incubated for 60 minutes (37° C., 5% CO2) in 60 μl assay buffer containing 1 μM Fluo-4AM ester, 0.02% pluronic acid, and 1% BSA. The dye loading solution was then aspirated and cells were washed 3× with 100 μl assay buffer. 30 μl of that same buffer was left in each well. […]

[2] = biological target: T2, human orexin-2 receptor (hOX2R) (Homo sapiens, UniProt O43614); assay: FLIPR Ca2+ Flux Assay, hOX2R; assay type: cell-based; details: CHO cells expressing hOX2R; agonist Ala-6,12 human orexin-A 70 pM
T2 construct: expressed in transfected cells; host or cells: Chinese hamster ovary (CHO) cells
T2 sequence (O43614 1-444): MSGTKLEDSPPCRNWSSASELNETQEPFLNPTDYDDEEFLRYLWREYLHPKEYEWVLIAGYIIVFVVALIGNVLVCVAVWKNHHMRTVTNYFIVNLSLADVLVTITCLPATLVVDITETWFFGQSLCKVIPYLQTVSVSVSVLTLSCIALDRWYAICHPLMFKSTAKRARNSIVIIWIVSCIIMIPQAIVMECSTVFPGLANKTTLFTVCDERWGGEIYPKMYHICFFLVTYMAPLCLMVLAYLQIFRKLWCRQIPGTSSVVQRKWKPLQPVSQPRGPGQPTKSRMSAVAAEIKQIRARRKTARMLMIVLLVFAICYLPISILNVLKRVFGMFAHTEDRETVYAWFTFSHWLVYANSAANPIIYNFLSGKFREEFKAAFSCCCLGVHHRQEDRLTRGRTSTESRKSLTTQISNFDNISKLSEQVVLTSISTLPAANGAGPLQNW
Excerpt: as §1, §2, §3

| Compound | IC50 [1] [nM] | IC50 [2] [nM] |
| --- | --- | --- |
| C[C@@H]1CC[C@@H](Oc2nccc(C(F)(F)F)c2F)CN1C(=O)c1ccccc1-n1nccn1 [Example 1, 3-Fluoro-2-{[(3R,6R)-6-methyl-1-{[2-(2H-1,2,3-triazol-2-yl)phenyl]carbonyl}piperidin-3-yl]oxy}-4-(trifluoromethyl)pyridine] | 839 | 38.5 |
| COc1ccc(C(=O)N2C[C@H](Oc3nccc(C(F)(F)F)c3F)CC[C@H]2C)c(-n2nccn2)n1 [Example 2, 3-fluoro-2-{[(3R,6R)-1-{[6-methoxy-2-(2H-1,2,3-triazol-2-yl)pyridin-3-yl]carbonyl}-6-methylpiperidin-3-yl]oxy}-4-(trifluoromethyl)pyridine] |  | 105 |
| C[C@@H]1CC[C@@H](Oc2cc(C(F)(F)F)ccn2)CN1C(=O)c1ccccc1-n1nccn1 [Example 3, 2-{[(3R,6R)-6-methyl-1-{[2-(2H-1,2,3-triazol-2-yl)phenyl]carbonyl}piperidin-3-yl]oxy}-4-(trifluoromethyl)pyridine] | 377 | 17.8 |
| Cc1c(I)ccnc1O[C@@H]1CC[C@@H](C)N(C(=O)c2ccccc2-n2nccn2)C1 [Example 4, 4-iodo-3-methyl-2-{[(3R,6R)-6-methyl-1-{[2-(2H-1,2,3-triazol-2-yl)phenyl]carbonyl}piperidin-3-yl]oxy}pyridine] | 118 | 8.8 |
| C[C@@H]1CC[C@@H](Oc2cc(I)ccn2)CN1C(=O)c1ccccc1-n1nccn1 [Example 5, 4-iodo-2-{[(3R,6R)-6-methyl-1-{[2-(2H-1,2,3-triazol-2-yl)phenyl]carbonyl}piperidin-3-yl]oxy}pyridine] | 414 | 7.3 |
| C[C@@H]1CC[C@@H](Oc2cc(C(F)(F)F)ccn2)CN1C(=O)c1ccccc1-n1ncnn1 [Example 6, 2-{[(3R,6R)-6-Methyl-1-{[2-(2H-tetrazol-2-yl)phenyl]carbonyl}piperidin-3-yl]oxy}-4-(trifluoromethyl)pyridine] | 828 | 10 |
| COc1ccc(C(=O)N2C[C@H](Oc3cc(Cl)ccn3)CC[C@H]2C)c(-n2nccn2)n1 [Example 7, 3-({(2R,5R)-5-[(4-chloropyridin-2-yl)oxy]-2-methylpiperidin-1-yl}carbonyl)-6-methoxy-2-(2H-1,2,3-triazol-2-yl)pyridine] |  | 85.7 |
| COc1ccc(C(=O)N2C[C@H](Oc3nccc(I)c3OC)CC[C@H]2C)c(-n2nccn2)n1 [Example 8, 4-iodo-3-methoxy-2-{[(3R,6R)-1-{[6-methoxy-2-(2H-1,2,3-triazol-2-yl)pyridin-3-yl]carbonyl}-6-methylpiperidin-3-yl]oxy}pyridine] | 2500 | 49.3 |
| COc1ccc(C(=O)N2C[C@H](Oc3cc(Br)ccn3)CC[C@H]2C)c(-n2nccn2)n1 [Example 9, 3-({(2R,5R)-5-[(4-bromopyridin-2-yl)oxy]-2-methylpiperidin-1-yl}carbonyl)-6-methoxy-2-(2H-1,2,3-triazol-2-yl)pyridine] |  | 36.3 |
| C[C@@H]1CC[C@@H](Oc2cc(F)ccn2)CN1C(=O)c1ccccc1-n1ncnn1 [Example 10, 4-fluoro-2-{[(3R,6R)-6-methyl-1-{[2-(2H-tetrazol-2-yl)phenyl]carbonyl}piperidin-3-yl]oxy}pyridine] | 3850 | 55 |
| C[C@@H]1CC[C@@H](Oc2cc(Cl)ccn2)CN1C(=O)c1ccccc1-n1ncnn1 [Example 11] | 917 | 10 |
| C[C@@H]1CC[C@@H](Oc2cc(Br)ccn2)CN1C(=O)c1ccccc1-n1ncnn1 [Example 12, 4-bromo-2-{[(3R,6R)-6-methyl-1-{[2-(2H-tetrazol-2-yl)phenyl]carbonyl}piperidin-3-yl]oxy}pyridine] | 986 | 10 |
| COc1ccc(C(=O)N2C[C@H](Oc3cc(F)ccn3)CC[C@H]2C)c(-n2nccn2)n1 [Example 13, 3-({(2R,5R)-5-[(4-fluoropyridin-2-yl)oxy]-2-methylpiperidin-1-yl}carbonyl)-6-methoxy-2-(2H-1,2,3-triazol-2-yl)pyridine] |  | 467 |
| COc1ccc(C(=O)N2C[C@H](Oc3nccc(I)c3OC)CC[C@H]2C)c(-c2ncccn2)n1 [Example 14, 2-[3-({(2R,5R)-5-[(4-Iodo-3-methoxypyridin-2-yl)oxy]-2-methylpiperidin-1-yl}carbonyl)-6-methoxypyridin-2-yl]pyrimidine] |  | 78.7 |
| C[C@@H]1CC[C@@H](Oc2cc(Cl)ccn2)CN1C(=O)c1ccccc1-n1nccn1 [Example 15, 4-Chloro-2-{[(3R,6R)-6-methyl-1-{[2-(2H-1,2,3-triazol-2-yl)phenyl]carbonyl}piperidin-3-yl]oxy}pyridine] | 548 | 10.8 |
| C[C@@H]1CC[C@@H](Oc2cc(F)ccn2)CN1C(=O)c1ccccc1-n1nccn1 [Example 16, 4-fluoro-2-{[(3R,6R)-6-methyl-1-{[2-(2H-1,2,3-triazol-2-yl)phenyl]carbonyl}piperidin-3-yl]oxy}pyridine] | 2310 | 34 |
| C[C@@H]1CC[C@@H](Oc2cc(Br)ccn2)CN1C(=O)c1ccccc1-n1nccn1 [Example 17, 4-bromo-2-{[(3R,6R)-6-methyl-1-{[2-(2H-1,2,3-triazol-2-yl)phenyl]carbonyl}piperidin-3-yl]oxy}pyridine] | 179 | 3.8 |
| C[C@@H]1CC[C@@H](Oc2cccc(F)c2)CN1C(=O)c1ccccc1-n1nccn1 [Example 18, (2R,5R)-5-(3-fluorophenoxy)-2-methyl-1-{[2-(2H-1,2,3-triazol-2-yl)phenyl]carbonyl}piperidine] |  | 132 |

— US20160068514A1, “HALO AND TRIFLUOROMETHYL SUBSTITUTED OREXIN RECEPTOR ANTAGONISTS” (MERCK SHARP & DOHME CORP., priority 2013, published 2016)
